Measurements published in publication PMC11352409, “Subtype-Specific Ligand Binding and Activation Gating in Homomeric and Heteromeric P2X Receptors” (Biomolecules, 2024).
Several values for one entry are separate records, joined by “and”; a condition that tells them apart may be missing. Identical values can stand only once.

Legend:
Type in all cases: cell-based
[1] = molecular target: T1, human P2X2 receptors (Homo sapiens, UniProt Q9UBL9); assay: Whole-cell patch-clamp concentration-activation, HEK293 cells stably expressing hP2X2; details: for Hill: hP2X2, Hill coefficient of concentration-activation fit; for Effect (Fold in ATP Potency): hP2X2, relative to ATP; for Effect (Fold in ATP Efficacy): hP2X2, relative to current at 100 µM ATP; for EC50: hP2X2, whole-cell, -50 mV, divalent-cation-free bath with 10 mM EGTA, normalised to 100 µM ATP
T1 construct: expressed in transfected cells
T1 sequence (Q9UBL9 1-404 isoform Q9UBL9-2): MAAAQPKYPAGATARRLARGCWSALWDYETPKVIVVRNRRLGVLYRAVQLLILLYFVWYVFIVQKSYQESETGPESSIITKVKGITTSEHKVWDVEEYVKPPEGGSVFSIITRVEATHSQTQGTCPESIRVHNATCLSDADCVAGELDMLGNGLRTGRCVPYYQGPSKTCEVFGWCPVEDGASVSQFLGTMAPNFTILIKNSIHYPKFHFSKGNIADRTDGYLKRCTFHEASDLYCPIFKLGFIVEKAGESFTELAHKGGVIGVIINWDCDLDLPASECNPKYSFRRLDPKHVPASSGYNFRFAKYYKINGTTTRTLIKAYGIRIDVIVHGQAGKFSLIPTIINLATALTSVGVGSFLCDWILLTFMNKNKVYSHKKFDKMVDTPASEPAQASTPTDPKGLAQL
Experimental: (§1) Human P2X receptors were expressed from HEK293 cell lines containing an inducible promoter system (Flp-In-T-REx 293, Invitrogen, Waltham, MA, USA). The used cell lines were: hP2X2 B (RRID: AC line CVCL_D6U1), hP2X3 (RRID: AC line CVCL_D6U3), and hP2X2/3 (RRID: AC line CVCL_D6U2). The cells were cultured in MEM supplemented with non-essential amino acids (Gibco, Waltham, MA, USA), 10% FCS, and antibiotics, according to the manufacturer’s instructions. For stable cell lines, Flp-In-T-REx 293 cells were transfected using the calcium phosphate method with a mixture of plasmids (0.3 µg pcDNA5/FRT/TO P2X gene and 1.5 µg pOG44) and selected for hygromycin resistance. The cells were seeded on glass coverslips for electrophysiological measurements and used 24–48 h after tetracycline induction ([…]).
(§2) Membrane currents were recorded with a standard patch-clamp technique in the whole-cell configuration. The patch pipettes were pulled from borosilicate glass (ID 1.0 mm, OD 2.0 mm; VITROCOM, Mountain Lakes, NJ, USA) using a micropipette puller (P-97, Sutter Instrument, Novato, CA, USA). The pipettes were filled with intracellular solution containing (mM) 142 NaCl, 5 BAPTA, 5 EGTA, and 10 HEPES at pH 7.4. The pipette resistance was from 2.0 to 6.0 MΩ. The bath solution contained (mM) 142 NaCl, 10 EGTA, 10 HEPES, and 10 glucose at pH 7.4. To increase the speed of recovery from the hP2X3 receptors, we additionally used a bath solution containing (mM) 142 NaCl, 10 HEPES, 10 glucose, 2 CaCl2, and 1 MgCl2. The cells were lifted for recording from the chamber bottom by the patch pipette and positioned in front of the outlet of the application pipette.
(§3) Solutions switches were carried out with the application pipette that had three barrels (inner diameter ~600 µm, Warner Instruments) controlled by a step motor (SF-77B, Warner Instruments). The speed of the laminar solution flow out of the barrels was estimated to be 2–5 cm/s. One barrel contained a control solution and another was connected to a solution selector (Vici Valco Instruments), which allowed us to apply different test solutions by exchanging the solution during the interval (60 sec for P2X2 and P2X2/3 receptors, 180 s for P2X3 receptors) of applying the control solution. Cells expressing hP2X3 were washed with 3 Units/mL apyrase for 30 min to remove ATP. To ensure the comparability of the data points between each application, we rinsed hP2X3 with the following solution for 3 min after each ATP application (mM): 142 NaCl, 10 HEPES, 10 glucose, 2 CaCl2, and 1 MgCl2 at pH 7.4. After sufficient recovery, we switched to the bath solution for 10 s and then to the solution of interest. The speed of the switch around a whole cell was estimated to be below 10 ms by switching between different salt solutions.
(§4) The saturation of activation was determined with ATP at 100 µM. The currents were recorded with a HEKA EPC 10 amplifier in combination with the patchmaster software. The sampling rate was 10 kHz and the recordings were on-line filtered at 2.9 kHz using a four-pole Bessel filter. The currents were recorded at a constant holding potential of −50 mV and the series resistance was compensated with the patchmaster software up to 80%.
(§5) The concentration–activation relationships from whole-cell measurements in the HEK293 cells were obtained from the maximum currents during ATP application. These current amplitudes were normalised with respect to the current at saturating ATP (100 µM) and the resulting data points were fitted I/ImaxATP = Amp/(1 + (EC50/[X])^h) (1) with the Origin 2019® software using a non-linear curve fitting routine. I is the actual current amplitude and ImaxATP is the maximum current amplitude at saturating ATP. The amplitude Amp is the efficacy of the respective ligands. EC50 is the ligand concentration generating the half-maximum current and h is the respective Hill coefficient. [X] is the actual concentration of ATP to be tested. […]

[2] = molecular target: T2, human P2X3 receptors (Homo sapiens, UniProt P56373); assay: Whole-cell patch-clamp concentration-activation, HEK293 cells stably expressing hP2X3; details: for Hill: hP2X3, Hill coefficient of concentration-activation fit; for Effect (Fold in ATP Potency): hP2X3, relative to ATP; for Effect (Fold in ATP Efficacy): hP2X3, relative to current at 100 µM ATP; for EC50: hP2X3, whole-cell, -50 mV, divalent-cation-free bath with 10 mM EGTA, normalised to 100 µM ATP
T2 construct: expressed in transfected cells
T2 sequence (P56373 1-397): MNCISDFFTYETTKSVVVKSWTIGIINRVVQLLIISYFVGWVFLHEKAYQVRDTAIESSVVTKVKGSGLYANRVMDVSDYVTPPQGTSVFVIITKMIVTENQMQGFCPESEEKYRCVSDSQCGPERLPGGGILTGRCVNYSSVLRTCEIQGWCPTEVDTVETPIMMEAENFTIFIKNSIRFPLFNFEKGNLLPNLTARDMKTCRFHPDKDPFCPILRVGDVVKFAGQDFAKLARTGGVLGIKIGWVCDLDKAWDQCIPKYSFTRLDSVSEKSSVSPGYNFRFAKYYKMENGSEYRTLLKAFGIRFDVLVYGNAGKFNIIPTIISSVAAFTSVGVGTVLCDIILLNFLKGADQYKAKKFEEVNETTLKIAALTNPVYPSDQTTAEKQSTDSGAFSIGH
Experimental: as §1, §2, §3, §4, §5

[3] = molecular target: T3, human P2X2/3 receptors (Homo sapiens, UniProt P56373+Q9UBL9); assay: Whole-cell patch-clamp concentration-activation, HEK293 cells stably expressing hP2X2/3
T3 construct: expressed in transfected cells
T3 sequence (Q9UBL9 1-404 isoform Q9UBL9-2): T1 sequence (Q9UBL9 1-404 isoform Q9UBL9-2)
T3 sequence (P56373 1-397): T2 sequence (P56373 1-397)
Experimental: as §1, §2, §3, §4, §5

## Nc1ncnc2c1ncn2[C@@H]1O[C@H](COP(=O)(O)CP(=O)(O)OP(=O)(O)O)[C@@H](O)[C@H]1O [α,βMe-ATP, αβmethylene-ATP]
[1]
  Hill: 1.7 ± 1.5
  Effect (Fold in ATP Potency): 0.1 fold
  Effect (Fold in ATP Efficacy): 0.1 fold
  EC50: ~6.8 µM and 6.8 µM
[1]; hP2X2, result in words
  Agonist behaviour (current response): only partially
[2]
  Hill: 1.6 ± 0.7
  Effect (Fold in ATP Potency): 0.1 fold
  Effect (Fold in ATP Efficacy): 1.9 fold
  EC50: 9.6 ± 3.3 µM

## Nc1ncnc2c1ncn2[C@@H]1O[C@H](COP(=O)(O)OP(=O)(O)OP(=O)(O)O)[C@@H](O)[C@H]1O [ATP]
[1]; hP2X2, 0.3 µM ATP with 1 mM MgCl2 (27.5 nM ATP4- + 272.5 nM Mg2+ATP)
  Current response in presence of Mg2+: completely abolished
[1]
  Hill: 1.1 ± 0.1
  Effect (Fold in ATP Potency): 1 fold
  Effect (Fold in ATP Efficacy): 1 fold
  EC50: 0.7 ± 0.1 µM
[2]
  Hill: 1.3 ± 0.2
  Effect (Fold in ATP Potency): 1 fold
  Effect (Fold in ATP Efficacy): 1 fold
  EC50: 1.1 ± 0.1 µM
[3]; hP2X2/3, Hill coefficient of concentration-activation fit
  Hill: 0.9 ± 0.1
[3]; hP2X2/3, relative to ATP
  Effect (Fold in ATP Potency): 1 fold
[3]; hP2X2/3, relative to current at 100 µM ATP
  Effect (Fold in ATP Efficacy): 1 fold
[3]; hP2X2/3, whole-cell, -50 mV, divalent-cation-free bath with 10 mM EGTA, normalised to 100 µM ATP
  EC50: 2.7 ± 0.4 µM
